Measured values: patent publication US20230293411A1, “BIODEGRADABLE UV ABSORBERS” (BASF SE, priority 2020, published 2023)
Where a name gives a salt, the structure may show the parent alone. Read-outs that look alike come from different tables or passages of the source.

What was measured:
[1] = Specific extinction coefficient by UV/VIS spectrophotometry in water; type: physicochemical
[2] = Absorbance of croconic acid salts in formulation on PMMA plates; type: physicochemical; conditions: for Absorbance of the formulation: Formulations 1 and 2, 30 mg on PMMA plate, 15 minutes equilibration, 290-400 nm, FIG. 2, compared to Table 1
Experimental: The absorbance of Formulation 1 and 2 was determined as follows: […]
30 mg milligram of product were evenly spread on roughened PMMA plates (Heliosplate SB6, Helioscreen Creil/France) using a presaturated finger cot. After an equilibration time of 15 minutes transmission measurements between 290 and 400 nm were carried out using a spectrophotometer equipped with an integrating sphere (UV Transmittance Analyzer UV1000-S, Labsphere North Sutton/US).

[3] = Biodegradation, OECD 301F manometric respirometry test; conditions: inferred from components; the salt itself was not tested

Compound | E1, 1 (specific extinction coefficient at λmax) ([1]; in water, d=1 cm, at λmax) | Maximum absorbance wavelength (λmax) ([1]; in water, optical pathlength d=1 cm, spectrum 250 nm to 500 nm) [nm] | Absorbance of the formulation [2] | Crystallization after water evaporation ([2]; in formulation on PMMA plate) | E1, 1 (specific extinction coefficient at λmax) [1] | Maximum absorbance wavelength (λmax) [1] [nm] | Biodegradability concluded from croconic acid and triethanolamine [3]
O=c1c([O-])c([O-])c(=O)c1=O.[Na+].[Na+] [Comp. Compound 1, 4,5-Dihydroxy-4-cyclopentene-1,2,3-trione di-Sodium Salt] | 1996 | 364 | lower | crystallization | – | – | –
O=c1c(O)c(O)c(=O)c1=O [Compound A, 4,5-Dihydroxy-4-cyclopentene-1,2,3-trione di-triethanolammonium Salt] | – | – | within the expected range | – | 844 | 364 | biodegradable
O=c1c([O-])c([O-])c(=O)c1=O.[K+].[K+] [Comp. Compound 2, 4,5-Dihydroxy-4-cyclopentene-1,2,3-trione di-Potassium Salt] | – | – | – | – | 1704 | 364 | –
